Test results from article PMC11277489, “Novel Piperazine Derivatives of Vindoline as Anticancer Agents” (International Journal of Molecular Sciences, 2024).

Columns and labels:
SW-620 = assay: NCI60 one-dose screen (10 μM), Colon Cancer; format: cell-based; details: Homo sapiens; 10 μM; SW-620, Colon Cancer; read-out: Growth percent rate
NCI-H522 = assay: NCI60 one-dose screen (10 μM), Non-small Cell Lung Cancer; format: cell-based; details: Homo sapiens; 10 μM; NCI-H522, Non-small Cell Lung Cancer; read-out: Growth percent rate
ACHN = assay: NCI60 one-dose screen (10 μM), Renal Cancer; format: cell-based; details: Homo sapiens, 10 μM, Renal Cancer, read-out: Growth percent rate
HOP-62 = assay: NCI60 one-dose screen (10 μM), Non-small Cell Lung Cancer; format: cell-based; details: Homo sapiens; 10 μM; HOP-62, Non-small Cell Lung Cancer; read-out: Growth percent rate
UACC-257 = assay: NCI60 one-dose screen (10 μM), Melanoma; format: cell-based; details: Homo sapiens; 10 μM; UACC-257, Melanoma; read-out: Growth percent rate
MDA-MB-435 = assay: NCI60 one-dose screen (10 μM), Melanoma; format: cell-based; details: Homo sapiens; 10 μM; MDA-MB-435, Melanoma; read-out: Growth percent rate
RXF 393 = assay: NCI60 one-dose screen (10 μM), Renal Cancer; format: cell-based, human; details: for activity at 10 µM: Homo sapiens, RXF 393, Renal Cancer, read-out: Growth percent rate
MCF7 = assay: NCI60 one-dose screen (10 μM), Breast Cancer; format: cell-based; details: Homo sapiens; 10 μM; MCF7, Breast Cancer; read-out: Growth percent rate
HT29 = assay: NCI60 one-dose screen (10 μM), Colon Cancer; format: cell-based; details: Homo sapiens, HT-29; 10 μM; HT29, Colon Cancer; read-out: Growth percent rate
OVCAR-3 = assay: NCI60 one-dose screen (10 μM), Ovarian Cancer; format: cell-based; details: Homo sapiens; 10 μM; OVCAR-3, Ovarian Cancer; read-out: Growth percent rate
A549/ATCC = assay: NCI60 one-dose screen (10 μM), Non-small Cell Lung Cancer; format: cell-based; details: Homo sapiens; 10 μM; A549/ATCC, Non-small Cell Lung Cancer; read-out: Growth percent rate
CAKI-1 = assay: NCI60 one-dose screen (10 μM), Renal Cancer; format: cell-based; details: Homo sapiens; 10 μM; CAKI-1, Renal Cancer; read-out: Growth percent rate
SN12C = assay: NCI60 one-dose screen (10 μM), Renal Cancer; format: cell-based; details: Homo sapiens, 10 μM, Renal Cancer, read-out: Growth percent rate
NCI-H23 = assay: NCI60 one-dose screen (10 μM), Non-small Cell Lung Cancer; format: cell-based; details: Homo sapiens; 10 μM; NCI-H23, Non-small Cell Lung Cancer; read-out: Growth percent rate
HCC-2998 = assay: NCI60 one-dose screen (10 μM), Colon Cancer; format: cell-based; details: Homo sapiens; 10 μM; HCC-2998, Colon Cancer; read-out: Growth percent rate
NCI-H322M = assay: NCI60 one-dose screen (10 μM), Non-small Cell Lung Cancer; format: cell-based; details: Homo sapiens, 10 μM, Non-small Cell Lung Cancer, read-out: Growth percent rate
HCT-15 = assay: NCI60 one-dose screen (10 μM), Colon Cancer; format: cell-based; details: Homo sapiens; 10 μM; HCT-15, Colon Cancer; read-out: Growth percent rate
EKVX = assay: NCI60 one-dose screen (10 μM), Non-small Cell Lung Cancer; format: cell-based; details: Homo sapiens, 10 μM, Non-small Cell Lung Cancer, read-out: Growth percent rate
786–0 = assay: NCI60 one-dose screen (10 μM), Renal Cancer; format: cell-based; details: Homo sapiens; 10 μM; 786-0, Renal Cancer; read-out: Growth percent rate
SNB-19 = assay: NCI60 one-dose screen (10 μM), CNS Cancer; format: cell-based; details: Homo sapiens; 10 μM; SNB-19, CNS Cancer; read-out: Growth percent rate
SK-MEL-5 = assay: NCI60 one-dose screen (10 μM), Melanoma; format: cell-based, human; details: for activity at 10 µM: Homo sapiens, SK-MEL-5, Melanoma, read-out: Growth percent rate
HCT-116 = assay: NCI60 one-dose screen (10 μM), Colon Cancer; format: cell-based; details: Homo sapiens; 10 μM; HCT-116, Colon Cancer; read-out: Growth percent rate
MOLT-4 = assay: NCI60 one-dose screen (10 μM), Leukemia; format: cell-based, human; details: Homo sapiens; 10 μM; MOLT-4, Leukemia; read-out: Growth percent rate
CCRF-CEM = assay: NCI60 one-dose screen (10 μM), Leukemia; format: cell-based; details: Homo sapiens, 10 μM, Leukemia, read-out: Growth percent rate
HL-60(TB) = assay: NCI60 one-dose screen (10 μM), Leukemia; format: cell-based; details: Homo sapiens; 10 μM; HL-60(TB), Leukemia; read-out: Growth percent rate
TK-10 = assay: NCI60 one-dose screen (10 μM), Renal Cancer; format: cell-based; details: Homo sapiens; 10 μM; TK-10, Renal Cancer; read-out: Growth percent rate
OVCAR-8 = assay: NCI60 one-dose screen (10 μM), Ovarian Cancer; format: cell-based; details: Homo sapiens; 10 μM; OVCAR-8, Ovarian Cancer; read-out: Growth percent rate
OVCAR-4 = assay: NCI60 one-dose screen (10 μM), Ovarian Cancer; format: cell-based; details: Homo sapiens; 10 μM; OVCAR-4, Ovarian Cancer; read-out: Growth percent rate
MALME-3M = assay: NCI60 one-dose screen (10 μM), Melanoma; format: cell-based; details: Homo sapiens; 10 μM; MALME-3M, Melanoma; read-out: Growth percent rate
SF-295 = assay: NCI60 one-dose screen (10 μM), CNS Cancer; format: cell-based; details: Homo sapiens; 10 μM; SF-295, CNS Cancer; read-out: Growth percent rate
IGROV1 = assay: NCI60 one-dose screen (10 μM), Ovarian Cancer; format: cell-based; details: Homo sapiens, IGROV-1; 10 μM; IGROV1, Ovarian Cancer; read-out: Growth percent rate
COLO 205 = assay: NCI60 one-dose screen (10 μM), Colon Cancer; format: cell-based, human; details: for activity at 10 µM: Homo sapiens, COLO 205, Colon Cancer, read-out: Growth percent rate
M14 = assay: NCI60 one-dose screen (10 μM), Melanoma; format: cell-based; details: Homo sapiens; 10 μM; M14, Melanoma; read-out: Growth percent rate
SF-268 = assay: NCI60 one-dose screen (10 μM), CNS Cancer; format: cell-based; details: Homo sapiens; 10 μM; SF-268, CNS Cancer; read-out: Growth percent rate
HS 578T = assay: NCI60 one-dose screen (10 μM), Breast Cancer; format: cell-based; details: Homo sapiens; 10 μM; HS 578T, Breast Cancer; read-out: Growth percent rate
K-562 = assay: NCI60 one-dose screen (10 μM), Leukemia; format: cell-based; details: Homo sapiens, K562; 10 μM; K-562, Leukemia; read-out: Growth percent rate
LOX IMVI = assay: NCI60 one-dose screen (10 μM), Melanoma; format: cell-based, human; details: Homo sapiens; 10 μM; LOX IMVI, Melanoma; read-out: Growth percent rate
RPMI-8226 = assay: NCI60 one-dose screen (10 μM), Leukemia; format: cell-based; details: Homo sapiens; 10 μM; RPMI-8226, Leukemia; read-out: Growth percent rate
SF-539 = assay: NCI60 one-dose screen (10 μM), CNS Cancer; format: cell-based, human; details: for activity at 10 µM: Homo sapiens, SF-539, CNS Cancer, read-out: Growth percent rate
KM12 = assay: NCI60 one-dose screen (10 μM), Colon Cancer; format: cell-based, human; details: Homo sapiens; 10 μM; KM12, Colon Cancer; read-out: Growth percent rate
SK-MEL-2 = assay: NCI60 one-dose screen (10 μM), Melanoma; format: cell-based; details: Homo sapiens; 10 μM; SK-MEL-2, Melanoma; read-out: Growth percent rate
SK-MEL-28 = assay: NCI60 one-dose screen (10 μM), Melanoma; format: cell-based; details: Homo sapiens; 10 μM; SK-MEL-28, Melanoma; read-out: Growth percent rate

SMILES: CC[C@]12C=CCN3CC[C@@]4(c5ccc(OC)cc5N(C)[C@H]4[C@@](O)(C(=O)OC)[C@@H]1OC(=O)CCCN1CCN(c4ccc(C(F)(F)F)cc4)CC1)[C@@H]32 [Compound 22]
- activity at 10 µM (SW-620): 7.47%
- activity at 10 µM (NCI-H522): -86%
- activity at 10 µM (ACHN): -20.3%
- activity at 10 µM (HOP-62): 0.03%
- activity at 10 µM (UACC-257): -79.3%
- activity at 10 µM (MDA-MB-435): -78.9%
- growth percent rate (RXF 393; 10 μM one-dose, RXF-393 renal cancer, negative = lethality): −91.93%
- activity at 10 µM (RXF 393): -91.9%
- activity at 10 µM (MCF7): -51.5%
- activity at 10 µM (HT29): -70.3%
- activity at 10 µM (OVCAR-3): -71.5%
- activity at 10 µM (A549/ATCC): 4.54%
- activity at 10 µM (CAKI-1): -65%
- activity at 10 µM (SN12C): -66.4%
- activity at 10 µM (NCI-H23): -61.1%
- activity at 10 µM (HCC-2998): -82.3%
- activity at 10 µM (NCI-H322M): 50.5%
- activity at 10 µM (HCT-15): -82.9%
- activity at 10 µM (EKVX): -49.9%
- activity at 10 µM (786–0): -72.7%
- activity at 10 µM (SNB-19): -3.08%
- growth percent rate (SK-MEL-5; 10 μM one-dose, SK-MEL-5 melanoma, negative = lethality): −98.54%
- activity at 10 µM (SK-MEL-5): -98.5%
- activity at 10 µM (HCT-116): -25.6%
- activity at 10 µM (MOLT-4): 9.3%
- activity at 10 µM (CCRF-CEM): 3.97%
- activity at 10 µM (HL-60(TB)): 7.9%
- activity at 10 µM (TK-10): -48.5%
- activity at 10 µM (OVCAR-8): -47.4%
- activity at 10 µM (OVCAR-4): -18.9%
- activity at 10 µM (MALME-3M): -90.3%
- activity at 10 µM (SF-295): -84.8%
- activity at 10 µM (IGROV1): -28.9%
- growth percent rate (COLO 205; 10 μM one-dose, COLO-205 colon cancer, negative = lethality): −93.46%
- activity at 10 µM (COLO 205): -93.5%
- activity at 10 µM (M14): -75.5%
- activity at 10 µM (SF-268): 0.04%
- activity at 10 µM (HS 578T): -46.2%
- activity at 10 µM (K-562): 6.96%
- activity at 10 µM (LOX IMVI): -97.2%
- activity at 10 µM (RPMI-8226): -9.29%
- growth percent rate (SF-539; 10 μM one-dose, SF-539 CNS cancer, negative = lethality): −96.98%
- activity at 10 µM (SF-539): -97%
- activity at 10 µM (KM12): -70%
- activity at 10 µM (SK-MEL-2): -93.9%
- activity at 10 µM (SK-MEL-28): -92.1%

SMILES: CC[C@]12C=CCN3CC[C@@]4(c5ccc(OC)cc5N(C)[C@H]4[C@@](O)(C(=O)OC)[C@@H]1OC(=O)CCCN1CCN(Cc4ccc(C(F)(F)F)cc4)CC1)[C@@H]32 [Compound 23]
- activity at 10 µM (SW-620): -87.1%
- activity at 10 µM (NCI-H522): -59.3%
- activity at 10 µM (ACHN): -78.1%
- activity at 10 µM (HOP-62): -86.7%
- activity at 10 µM (UACC-257): -82.2%
- activity at 10 µM (MDA-MB-435): -95.3%
- activity at 10 µM (RXF 393): -85.3%
- activity at 10 µM (MCF7): -74.3%
- activity at 10 µM (HT29): -54.4%
- activity at 10 µM (OVCAR-3): -68.4%
- activity at 10 µM (A549/ATCC): -67.8%
- activity at 10 µM (CAKI-1): -78%
- activity at 10 µM (SN12C): -4.35%
- activity at 10 µM (NCI-H23): -71.3%
- activity at 10 µM (HCC-2998): -83.6%
- activity at 10 µM (NCI-H322M): -48.2%
- activity at 10 µM (HCT-15): -68.1%
- activity at 10 µM (EKVX): -75.1%
- activity at 10 µM (786–0): -95.7%
- activity at 10 µM (SNB-19): -89.1%
- activity at 10 µM (SK-MEL-5): -98.5%
- activity at 10 µM (HCT-116): -89.3%
- activity at 10 µM (MOLT-4): -68.5%
- activity at 10 µM (CCRF-CEM): -63.1%
- activity at 10 µM (HL-60(TB)): -65.8%
- activity at 10 µM (TK-10): -81.7%
- activity at 10 µM (OVCAR-8): -42%
- activity at 10 µM (OVCAR-4): -32.1%
- activity at 10 µM (MALME-3M): -95.2%
- activity at 10 µM (SF-295): -86.7%
- activity at 10 µM (IGROV1): -71%
- activity at 10 µM (COLO 205): -82.9%
- activity at 10 µM (M14): -88.9%
- activity at 10 µM (SF-268): -55.1%
- activity at 10 µM (HS 578T): -61.1%
- activity at 10 µM (K-562): -73.3%
- activity at 10 µM (LOX IMVI): -54.4%
- activity at 10 µM (RPMI-8226): -58.3%
- activity at 10 µM (SF-539): -98.5%
- activity at 10 µM (KM12): -70.9%
- activity at 10 µM (SK-MEL-2): -72.6%
- activity at 10 µM (SK-MEL-28): -94.8%
